Test results from patent US5462929A, “Treatment of psoriasis by administration of 4-carbamoyl-1-β-D-ribofuranosylimidszolium-5-oleate” (Asahi Kasei Kogyo Kabushiki Kaisha, priority 1991, dated 1995).
Read-outs that look alike come from different tables or passages of the source.

Experiments:
[1] = cited from earlier work
[2] = tested on: Normal human epidermal keratinocyte cells (NHEK); test: Microscopical observation of cultured keratinocyte cells; type: cell-based; settings: 0.8 and 4 μg/ml, days 5, 7, 9; ×76.5
Protocol: (§1) Normal human epidermal keratinocyte cells
(§2) (NHEK: human penile prepuce originated secondary cultured cells)
(§3) (1) NHEK was subcultured according to the instruction described in the manual for Epi Pack, to obtain tertiary subcultured cells. Epi Pack medium on arrival was exchanged by fresh K-C,M to which added attached bovine pituitary gland extract (BPE), then NHEK was cultured at 37° C. and on the first day, tertiary cultivation was performed under the same conditions.
(§4) Cultured, day 5, day 7 and day 9: Photographs were taken on the central part of the two plates of 24-well culture plate, and calculated the number of cells.
Magnification of microscopic photographs is ×76.5 in each case.

[3] = tested on: rats; settings: cited from earlier work
[4] = rat; cited from earlier work
[5] = tested on: Normal human epidermal keratinocyte cells (NHEK); test: Growth inhibition on cultured human epidermal keratinocyte cells, dye uptake method
[6] = tested on: rejection of the transplantation of an organ such as kidney; settings: cited from earlier work
[7] = tested on: Normal human epidermal keratinocyte cells (NHEK); test: Growth inhibition on cultured human epidermal keratinocyte cells, Coulter counter method; type: cell-based; settings: mizoribine over 20 μg/ml, constant level; initial concentration 2.5×10^3 cells/ml
[8] = tested on: mice; settings: cited from earlier work
[9] = clinical trials; cited from earlier work
[10] = tested on: Normal human epidermal keratinocyte cells (NHEK); test: Growth inhibition on cultured human epidermal keratinocyte cells, Coulter counter method; type: cell-based; settings: for Number of cells/cm^2: control 95.5
Protocol: as §1, §2, §3
On the day of starting initial cultivation:
NHEK, 2500 cells/cm^2 (5000 cell/well), was inoculated in six 24-well culture plates.
as §4
On the remaining other plates, the medium was exchanged and mizoribine was added. (amount added: the same as above)
Method of calculating number of cells
On the cultivation, day 5, day 7 and day 9, respectively, one plate of 24-well culture plate was applied for calculating number of cells by Coulter counter, and the other one plate was applied for dye uptake method.
(a) Measurement by Coulter counter
Each well: washed with 0.2 ml of HEPES buffer saline
add 0.2 ml of trypsin/EDTA solution,
allow to stand at room temperature for 10 minutes,
then tap the 24-well culture plate by solid face to remove
added 0.3 ml of trypsin neutralization solution and separated
the cells by pipetting.
calculation of cells by Coulter counter
(counted particles over 7 μm .phi.)

[11] = in vivo; cited from earlier work
[12] = tested on: psoriasis vulgaris; test: Clinical trial on treatment of psoriasis (PASI, adverse effect, overall improvement, usefulness); type: in vivo, human; set-up: key to usefulness: 1: extremely useful; 2: useful; 3: slightly useful; 4: useless; 5: worse; key to overall improvement rate: 1: significantly improved; 2: improved; 3: slightly improved; 4: no change; 5: exacerbation; settings: 300 mg/day oral
Excerpt: 2. Subject: Patients of psoriasis.
(1) Psoriasis vulgaris with median grade which satisfied within the following standard.
a) No consideration for the distinction of sex, inpatient and outpatient.
b) aged over 15 and below 70.
c) PASI [Psoriasis area and Severity Index; Darmtologica, 157; 238-244, 1978: Table 4] over 20 at initial stage of the test.
(2) Following patients are omitted.
b) patients who have suffered with severe bacterial, viral or mycotic infection.
c) person with complication or anamesis of malignant tumor.
d) person with cardiac disorder, renal disorder, blood disorder, gastrointestinal bleeding, peptic ulcer, and other serious complication, and anamesis.
e) a person in pregnancy or in a lactation, and who suspects being pregnant.
f) in addition, persons who are determined by the doctors-in-charge as unfit to participate.
2) Term for dosage: 6 weeks
3) Prohibited other concomitant drugs.
Concomitant use of the following preparation and others are prohibited.
a) Oral dosage of methotrexate, other immunosuppressant, etretinate and steroid preparations.
b) Ultraviolet treatment.
c) Other medicament which seem to be effective for psoriasis [Chinese indigenous medicine (Kampo-Yaku), anti-allergic drug, etc.]
2) Calculation method of PASI:
PASI=0.1 (Eh+Ih+Dh)×Ah+0.3 (Et+It+Dt)×At+0.2 (Eu+Iu+Du)×Au+0.4 (El+Il+Dl)×Al
During the period of administration of the drug, accompanied symptoms, which have newly appeared and were thought to be closely related to and can not be denied with the relation for the administered medicament, are checked and searched in details of the fact, the day appeared, the day disappeared, degree, treatment, result and relation with the test drug, and studied the presence of adverse effect.
On the treatment of administration of the drug after 6 weeks, the results were evaluated.
Considering the progress of PASI, following five degrees of evaluation were applied as compared with the condition before administration.
Considering the overall improvement and safety evaluation such as adverse effect, following five degrees of evaluation were applied.

In the case of NC(=O)c1ncn([C@@H]2O[C@H](CO)[C@@H](O)[C@H]2O)c1O [Mizoribine, 4-carbamoyl-1-β-D-ribofuranosyl-imidazolium-5-olate], the solubility in water [1] is listed as “easily soluble in water”, the morphology of cells [2] is listed as “changed widely expanded shape” and the LD50 ([3]; female, i.m.) is listed as over 2800 mg/kg. For the same compound, the LD50 ([3]; female, i.v.) was over 2606 mg/kg, the LD50 ([3]; female, s.c.) was over 3975 mg/kg and the LD50 ([3]; male, i.m.) was over 2800 mg/kg. For the same compound, the LD50 ([3]; male, i.v.) was over 2572 mg/kg, the LD50 ([3]; male, p.o.) was over 3100 mg/kg and the LD50 ([3]; male, s.c.) was over 4161 mg/kg. For the same compound, the “Dermal level compared with plasma level” value [4] was “almost equal in plasma level”, the “growth inhibition rate, dye uptake method compared with Coulter counter method” value ([5]; mizoribine addition) was “slightly lower growth inhibition rate” and the OD665 value ([5]; where no difference in number of cells vs control by Coulter counter, lower level of concentration) was “Significant increase in the value at OD665”. For the same compound, the “immunosuppressive activity / rejection of organ transplantation” value [6] was “suppresses the rejection of the transplantation of an organ such as kidney”, the number of cells [7] was “approximately 4×10^3 cells/ml” and the LD50 ([8]; female, i.m.) was over 2800 mg/kg. For the same compound, the LD50 ([8]; female, i.v.) was over 3042 mg/kg, the LD50 ([8]; female, p.o.) was over 4883 mg/kg and the LD50 ([8]; female, s.c.) was over 4883 mg/kg. For the same compound, the LD50 ([8]; male, i.m.) was over 2800 mg/kg, the LD50 ([8]; male, i.v.) was over 3042 mg/kg and the LD50 ([8]; male, p.o.) was over 4883 mg/kg. For the same compound, the LD50 ([8]; male, s.c.) was over 4883 mg/kg, the Blood level [9] was “approximately 1 μg/ml” and the “Number of cells/cm^2” value ([10]; 0.8 μg/ml, cultivation day 5, Coulter counter) was 69.7 ×10^3 cells/cm^2. For the same compound, the growth inhibition ([10]; 4 μg/ml) was “significant growth inhibition was observed and cells were grown extremely slowly”, the “Number of cells/cm^2” value ([10]; 4 μg/ml, cultivation day 5, Coulter counter) was 8.6 ×10^3 cells/cm^2 and the growth inhibition ([10]; 8 μg/ml) was “significant growth inhibition was observed”. For the same compound, the “Number of cells/cm^2” value ([10]; 20 μg/ml, cultivation day 5, Coulter counter) was 4.5 ×10^3 cells/cm^2, the inhibition at 0.8 µg/mL ([10]; Homo sapiens, NHEK, 120 h, 0.8 μg/ml, cultivation day 5, Coulter counter, read-out: Inhibition rate) was 27% and the inhibition at 4 µg/mL ([10]; Homo sapiens, NHEK, 120 h, 4 μg/ml, cultivation day 5, Coulter counter, read-out: Inhibition rate) was 91%. For the same compound, the inhibition at 20 µg/mL ([10]; Homo sapiens, NHEK, 120 h, 20 μg/ml, cultivation day 5, Coulter counter, read-out: Inhibition rate) was 95%, the “inhibition of growth of human epidermal keratinocyte cells at concentration presumed to be reached in clinical use” value ([10]; blood level approximately 1 μg/ml) was “effective for significant inhibition of growth of human epidermal keratinocyte cells” and the blood accumulation residue [11] was “lower blood accumulation residue”. For the same compound, the nephrotoxicity [11] was “no nephrotoxicity”, the transfer into brain [11] was “less transfer into brain” and the overall improvement rate ([12]; after 6 weeks) was 2. For the same compound, the usefulness ([12]; after 6 weeks, overall improvement and safety) was 2, the Adverse effect ([12]; individual patients No. 1-4, 6 weeks) was “None” and the PASI post ([12]; patient No. 1, PASI pre 20, 6 weeks) was 12. It also gave a PASI post ([12]; patient No. 2, PASI pre 41.4, 6 weeks) of 20, a PASI post ([12]; patient No. 3, PASI pre 24.3, 6 weeks) of 14 and a PASI post ([12]; patient No. 4, PASI pre 21, 6 weeks) of 12.
